Row | SMILES | melting point [°C]
1 | Cc1cc(SCc2sc(-c3ccc(C(F)(F)F)c(F)c3)nc2C)ccc1OCC(=O)O | < 50
2 | O=C1Nc2ccccc2SC1CCCl (centres undefined) | 133 to 134
3 | CCOC(=O)/C=C/[C@H]1O[C@@H](n2cc(CC)c(=O)[nH]c2=O)C[C@@H]1OC(C)=O | 132 to 133
4 | O=c1oc2ccc(-c3ccc(F)cc3F)cc2c(=O)n1-c1ccccc1C(F)(F)F | 200 to 201
5 | CC(C)SCCCCCCCCCCCC(=O)Nc1ccccc1OCCCC(=O)O | 82 to 84
6 | CC(=O)Oc1cccc2c1C(=O)c1c(O)cccc1C2C(=O)C1CCCCC1 (centres undefined) | 154
7 | CCOC(=O)CC1=NCC(c2cccc(OCc3ccc4ccccc4n3)c2)O1 (centres undefined) | 94 to 95
8 | O=C(O)c1cc(Cl)cc(Cl)c1OC1CCOC1=O (centres undefined) | 117 to 120
9 | COC(=O)C1CC(C#N)(c2ccc(OC)c(OC)c2)CCC1=O (centres undefined) | 102 to 108
10 | C1=C2NCCN2C(c2ccccc2)c2ccccc2C1 (centres undefined) | 200 to 201
11 | CCOC(=O)C1(C(=O)OCC)CCC2(CC1)NCCc1cc(O)c(O)cc12 | 180 to 181
12 | CCOC(=O)c1cn(-c2nonc2C)c2nc(Cl)c(F)cc2c1=O | 211 to 216
13 | COC(=O)c1cccc2cc(C)[nH]c12 | 170 to 173
14 | S=C(S)CCc1ccccc1 | 57 to 59
15 | CC(C)(COC(=O)c1cc(Cl)c(O)c(Cl)c1)COC(=O)c1cc(Cl)c(O)c(Cl)c1 | 180 to 181
16 | CC(C)(C)OC(=O)Cn1ncc2c1CCN(C(=O)OC(C)(C)C)C2 | 126 to 127
17 | CC(=O)NS(=O)(=O)c1ccc(-c2c(Cl)nc(C(F)(F)F)nc2-c2ccc(S(C)(=O)=O)cc2)cc1 | 230 to 235
18 | Cc1ccsc1-c1nc(CCl)co1 | 95 to 96
19 | O=c1oc2cc(N3CCN(CCF)CC3)ccc2cc1-c1nc2ccccc2s1 | 246
20 | O=C(NCCO)c1cnc(C(=O)NCCO)s1 | 182 to 184
21 | CN1CCN(c2cc(=O)c3ccc4ccccc4c3o2)CC1 | 184 to 185

Row | SMILES | melting point [°C]
22 | Oc1ccc2c(c1)CCN(c1ccc(Cl)cc1)C2 | 122 to 123
23 | C[C@@H](O)[C@H]1C(=O)N([Si](C)(C)C(C)(C)C)[C@@H]1CC(=O)[Si](C)(C)C | 82 to 84
24 | CCCN(CCC)C(=O)Cc1ccc(OCC(=O)c2ccc(OC)cc2)c([N+](=O)[O-])c1 | 95 to 97
25 | CC(C)CC(=O)Nc1ccc2oc3c(c2c1)CCC3 | 162 to 163
26 | COc1ccc(C2(C=O)CCC(=O)CC2)cc1OC1CCCC1 | 55 to 57
27 | COC(=O)c1cc(-c2nc(COc3ccc(CCl)cc3OC)c(C)o2)ccc1OS(C)(=O)=O | 146 to 147
28 | Cn1nc2c(N)nc3c(c2c1CC(C)(C)O)CCCC3 | 228 to 234
29 | C=C1COc2c(N3CCC(NC(=O)OC(C)(C)C)C3)c(F)cc3c(=O)c(C(=O)O)cn1c23 (centres undefined) | 219 to 220
30 | C1=Cc2ccccc2ON1 | 134 to 136
31 | Cc1c(NC(=O)c2ccc(OC[C@@H]3CCCO3)cc2)ccc2cc(CNC3CCCC3)[nH]c12 | 159 to 163
32 | Nc1cc(-n2ncc(Cl)c(Cl)c2=O)c(F)cc1Cl | 186
33 | Nc1ccnc2c(NC(=O)c3c(Cl)cccc3Cl)cccc12 | 265 to 275
34 | COc1cccc(CNc2nc(Cl)nc3c2nc(Br)n3C(C)C)c1 | 123 to 125
35 | Cc1nc2c3c(c(C(=O)NC4CC4)cc2n1C)CCC(c1ccccc1)O3 (centres undefined) | 312 to 313
36 | CC(C)n1cc(-c2nc(C(N)=O)c(N)nc2-c2ccccc2)ccc1=O | 240 to 245
37 | N#Cc1nn(-c2c(Cl)cc(C(F)(F)F)cc2Cl)c(N)c1C1(C(F)(F)F)CC1 | 178 to 179
38 | Cc1cccc(Nn2cnc(C)c2-c2ccccc2)c1 | 159
39 | COP(=S)(OC)SCc1nc2sccn2c(=O)c1Cl | 125 to 130
40 | Nc1ccc(C#CCCN2CC=C(c3ccccc3)CC2)nc1 | 136 to 137
41 | CCCOc1ccc(S(=O)(=O)NCc2ccncc2)cc1-c1nc2cc(N)c([N+](=O)[O-])cc2c(=O)[nH]1 | 157 to 160
42 | CC(=O)c1nc(Cl)ccc1N | 108 to 110

Row | SMILES | melting point [°C]
43 | O=C(O)c1ccccc1C=Cc1ccc(-c2cc3ccc4ccccc4c3o2)cc1 | 210 to 211
44 | CC(C)(C)NC(=O)c1ccc(Cl)nc1 | 108 to 110
45 | CC(=O)Oc1c(C)sc2ccccc12 | 75 to 77
46 | COC(=O)COc1ccc(CC(C)NCC(O)c2cccc(C(F)(F)F)c2)cc1C (centres undefined) | 75 to 79
47 | CNc1nc(-c2cccc(NC(=S)c3ccc(C)cc3)c2)c2cc(OC)c(OC)cc2n1 | 209 to 211
48 | CC(=O)c1ccc(S(=O)(=O)NC(C)(C)C(=O)O)cc1 | 157 to 158
49 | CC1CC(=O)NN=C1c1ccc(N2CCNCC2)c(F)c1 (centres undefined) | 172 to 174
50 | CC(C)(C)NC(=O)c1nn(-c2ccc(Cl)cc2)c2c1C1CCC2CC1 | 198 to 200
51 | Cc1ccc2c(c1)OC(C(=O)O)Oc1ccccc1C2 (centres undefined) | 149 to 152
52 | Nc1ccccc1CNC(=O)C1Cc2ccccc2N1S(=O)(=O)c1ccc(-c2ccc(F)cc2F)cc1 (centres undefined) | 93 to 96
53 | CC(=O)n1cc(C2=C(c3cn(C)c4ccccc34)C(=O)NC2=O)c2ccccc21 | 252 to 253
54 | Cc1cc(C)n(-c2cnc(CN(C)C)c(Nc3ccc(Cl)cc3)n2)n1 | 112 to 114
55 | O=C1c2ccccc2C(=O)N1CC(=O)N1c2ccccc2N(Cc2ccccn2)C(=O)[C@H]2CCC[C@H]21 (relative stereo) | 227 to 229
56 | CC(=O)Nc1cccc2c1CCN(C)C2 | 138 to 139
57 | COc1ccc(-n2c(=O)c3c(N4CCN(C)CC4)cc(Cl)cc3n(Cc3ccccc3)c2=O)cc1 | 155 to 158
58 | NC(=O)c1c(C(=O)O)cnn1-c1cccc(Cl)c1 | 223 to 225
59 | CC(=O)SCC(Cc1ccccc1)C(=O)Nc1ccc(C)c(C(=O)O)c1C (centres undefined) | 187 to 189
60 | CC(C)(C)OC(=O)NC(Cc1ccc(OCc2ccccc2)cn1)C(=O)NCc1ccc(C(=O)NO)cc1 (centres undefined) | 106 to 108
61 | Cc1c(NC(=O)c2ccc(-c3ccc4c(c3)CCO4)cc2F)ccc2cc(CN3CCCC3)cnc12 | 181 to 182

Results, then the compound that gave them:

Row | melting point [°C] | SMILES
62 | 188 to 192 | CCCOc1ccc(S(=O)(=O)N2CCN(CC(=O)OCC)CC2)cc1-c1nc2cc3nc[nH]c3cc2c(=O)[nH]1
63 | > 300 | O=[N+]([O-])c1cnc2cc(Cl)ccc2c1O
64 | 102 to 104 | COCCN(CCC12CC3CC(CC(C3)C1)C2)C(=O)NCCCc1ccncc1
65 | 161 | OC(C(=Cn1cncn1)c1ccc(Cl)cc1)c1ccccc1C(F)(F)F (centres undefined)
66 | 130 to 135 | O=C(CC12CC3CC(CC(C3)C1)C2)Nc1cccc2nc(CCCNCCCO)ccc12
67 | 49 to 52 | O=C(Cc1cc(C(F)(F)F)cc(C(F)(F)F)c1)N1CCN(C(=O)CNC2CCN(Cc3ccccc3)CC2)C(c2ccccc2)C1 (centres undefined)
68 | 78 to 80 | CCN(C=O)c1ccccc1C(=O)COC(=O)c1ccccc1
69 | 195 to 199 | COC(=O)N(C)c1cccc(-c2ccc3nncn3n2)c1
70 | 137 to 138 | CN(C)C(=O)Nc1ccc(Oc2ccc3c(c2)OC(C)(C)CC3)cc1
71 | 132 to 135 | Cc1csc(Cl)c1NC(=S)Nc1cscc1N
72 | 159 to 161 | Clc1cccc(N2CCN(CCCOc3ccc4cn[nH]c4c3)CC2)c1Cl
73 | 176 to 178 | CCc1c(-c2ccc(O)cc2)c2cc(COCCCN3CCCCC3)c3cccc1n32
74 | 123 to 125 | CCN(CC)CC1CCCCN1CCNC(=O)N1c2ccccc2NC(=O)c2ccccc21 (centres undefined)
75 | 220 to 222 | CSc1cc(C)c(C(=O)N=C(N)N)cc1S(C)(=O)=O
76 | 209 to 211 | O=C(CN1CCC(Cc2ccc(F)cc2)CC1)Nc1ccc2c(c1)OCC(=O)N2
77 | 245 to 246 | CCn1cc(C(N)=O)c(=O)c2ccc(-c3ccccn3)cc21
78 | 76 to 77 | CCOC(=O)C=Cc1cncc(OCc2ccccc2)c1
79 | 88 to 90 | CN1CCN(C2=Nc3ccccc3N(C)c3sc4ccccc4c32)CC1
80 | 186 to 188 | CONC(=O)c1cc(C(=O)OC)c2cc(Cc3ccc(F)cc3)cnc2c1O

Row | melting point [°C] | SMILES
81 | 217 to 219 | CC(=O)N1CCN(C(=O)Cn2c(-c3ccc(Cl)cc3)nc3cccnc32)CC1
82 | 243 to 245 | CCCCC1CCCc2oc(C(=N)N)cc21 (centres undefined)
83 | 122 to 124 | O=C(O)CN1CC2(CCCCC2)CC1=O
84 | 226 to 227 | Cc1ccc(-c2c(C(=O)NCc3ccccc3)n(CC[C@@H](C)CO)c(=O)c3ncccc23)cc1
85 | 84 to 87 | CC(C)c1nc(-c2cc3cc(OCCNC[C@H](O)c4cccc(Cl)c4)ccc3o2)no1
86 | 95 to 96 | CCOC(=O)C1=C(COCc2nnnn2CCN2CCN(C(=O)NC)CC2)NC(C)=C(C(=O)OC)C1c1cccc(Cl)c1Cl (centres undefined)
87 | 117 to 120 | COC1(c2ccccc2)OC=C(c2ccc(CCC(=O)O)cc2)C1=O (centres undefined)
88 | 101 to 103 | Cc1ncn(CCCOc2c(C)cc(-c3nnn(C)n3)cc2C)n1
89 | 108 to 109 | Cc1oc(-c2ccccc2)nc1COc1ccc(CCl)cc1
90 | 166 to 168 | Cc1nc2sc([N+](=O)[O-])cc2c(=O)n1-c1ccc([N+](=O)[O-])cc1Cl
91 | 214 to 243 | CC(=O)Nc1ccc(C(=O)Nc2ccc(C(=O)N3CCCCc4ccccc43)cc2)c(Cl)c1
92 | 120 to 122 | Cc1ccc(-c2ccc(C(=O)CBr)cc2)cc1
93 | 85 to 88 | Nc1ncnc2c1ncn2[C@H]1C[C@@H](CO)C1
94 | 189 to 196 | CC(=O)N(C)c1c(I)c(NC(=O)CCCC(=O)O)c(I)c(C(=O)O)c1I
95 | 165 to 166 | Cc1c(S(=O)(=O)c2ccc(Cl)cc2)cc(C(C)C)c(O)c1C(=O)O
96 | 59 to 61 | CC(C)c1nc(CN(C)C(=O)N[C@H](C(=O)N[C@@H](Cc2ccccc2)C[C@H](O)[C@H](Cc2ccccc2)NC(=O)OCc2cnco2)C(C)C)cs1
97 | 98 to 100 | Cc1cc2c(c(C)c1Br)C(c1ccc(C(C)C)cc1)CS2 (centres undefined)
98 | 199 to 200 | Cc1ccc(C(=S)c2c(C)cc(Cc3ccc(N)cc3F)n2C)cc1
99 | 65 | N#CC(N)COc1ccccc1 (centres undefined)

— a melting point compilation (Tetko et al.; mined from patent text by program, amines drawn as free bases though some values may be those of a salt)
